From patent US6737383B1, “Herbicidal oxadiazolidines” (priority 1999, dated 2004)

How the values were obtained:
[1] = tested on: rape; assay: Test B pre/postemergence rape; assay type: in vivo, Brassica napus
Outline: (§1)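 Herbicidal effect was estimated by eye on a ten-point control scale after plants spent twelve to sixteen days in a greenhouse following soil or foliar treatment. Foliar sprays targeted plants at one to four leaves; all doses were formulated in a non-phytotoxic solvent with surfactant.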

[2] = tested on: pigweed; assay: Test B pre/postemergence pigweed; assay type: in vivo, Amaranthus retroflexus
Outline: as §1

[3] = tested on: sugar beet; assay: Test B pre/postemergence sugar beet; assay type: in vivo, Beta vulgaris
Outline: as §1

[4] = Preemergence, Rate 62 g/ha, scale of 0 to 10 where 0 is no effect and 10 is complete control
[5] = Preemergence, Rate 250 g/ha, scale of 0 to 10 where 0 is no effect and 10 is complete control
[6] = Preemergence, Rate 500 g/ha, scale of 0 to 10 where 0 is no effect and 10 is complete control
[7] = Rate 125 g/ha, Postemergence, scale of 0 to 10 where 0 is no effect and 10 is complete control
[8] = Rate 125 g/ha, Preemergence, scale of 0 to 10 where 0 is no effect and 10 is complete control
[9] = Rate 250 g/ha, Postemergence, scale of 0 to 10 where 0 is no effect and 10 is complete control
[10] = Rate 500 g/ha, Postemergence, scale 0 to 10, 0 no effect, 10 complete control
[11] = Postemergence, Rate 1000 g/ha, scale 0 to 10 (0 no effect, 10 complete control)
[12] = Rate 1000 g/ha, Preemergence, scale 0 to 10 (0 no effect, 10 complete control)
[13] = Rate 62 g/ha, Postemergence, scale 0 to 10 (0 no effect, 10 complete control)
[14] = Postemergence, Rate 31 g/ha, visual rating, scale 0 to 10 (0 no effect, 10 complete control)
[15] = Postemergence, Rate 125 g/ha, scale 0 to 10, 0 is no effect, 10 is complete control

Row | Structure (SMILES) | Rape plant response rating [1, 4] | Rape plant response rating [1, 5] | Rape plant response rating [1, 7] | Plant response rating, Rape [1, 9] | Redroot pigweed plant response rating [2, 4] | Redroot pigweed plant response rating [2, 5] | Redroot pigweed plant response rating [2, 7] | Plant response rating, Redroot pigweed [2, 9] | Sugarbeets plant response rating [3, 4] | Sugarbeets plant response rating [3, 5] | Sugarbeets plant response rating [3, 7] | Plant response rating, Sugarbeets [3, 9] | Rape plant response rating (0 to 10 scale) ([1]; Preemergence, Rate 125 g/ha) | Rape plant response rating [1, 6] | Rape plant response rating [1, 13] | Redroot pigweed plant response rating (0 to 10 scale) ([2]; Preemergence, Rate 125 g/ha) | Redroot pigweed plant response rating [2, 6] | Redroot pigweed plant response rating [2, 13] | Sugarbeets plant response rating (0 to 10 scale) ([3]; Preemergence, Rate 125 g/ha) | Sugarbeets plant response rating [3, 13] | other results
1 | Cc1ccccc1-n1c(=O)on(C(=O)N(c2ccc(C(C)(C)C)cc2)C(C)C)c1=O [Compound 270] | 0 | 0 | 0 | 0 | 0 | 0 | 0 | 0 | 0 | 0 | 0 | 0 | – | – | – | – | – | – | – | – | Plant response rating, Rape [1, 6]: 0; Rape plant response rating [1, 8]: 0; Rape plant response rating [1, 10]: 0; Plant response rating, Redroot pigweed [2, 6]: 0; Redroot pigweed plant response rating [2, 8]: 0; Redroot pigweed plant response rating [2, 10]: 0; Plant response rating, Sugarbeets [3, 6]: 0; Sugarbeets plant response rating [3, 8]: 0; Sugarbeets plant response rating [3, 10]: 0
2 | C=CCn1c(=O)on(C(=O)N(c2ccc(F)cc2)C(C)C(=O)OCC)c1=O (stereo not drawn) [Compound 279] | – | 0 | 0 | 0 | – | 0 | 0 | 2 | – | 0 | 0 | 0 | – | – | – | – | – | – | – | – | Rape plant response rating [1, 11]: 0; Plant response rating, Rape [1, 6]: 0; Rape plant response rating [1, 8]: 0; Rape plant response rating [1, 10]: 0; Plant response rating, Rape [1, 12]: 0; Redroot pigweed plant response rating [2, 11]: 4; Plant response rating, Redroot pigweed [2, 6]: 0; Redroot pigweed plant response rating [2, 8]: 0; Redroot pigweed plant response rating [2, 10]: 2; Plant response rating, Redroot pigweed [2, 12]: 0; Sugarbeets plant response rating [3, 11]: 4; Plant response rating, Sugarbeets [3, 6]: 0; Sugarbeets plant response rating [3, 8]: 0; Sugarbeets plant response rating [3, 10]: 0; Plant response rating, Sugarbeets [3, 12]: 0
3 | CC(C)N(C(=O)n1oc(=O)n(C2CCCCO2)c1=O)c1ccc(F)cc1 (stereo not drawn) [Compound 311] | 0 | 0 | 0 | 0 | 0 | 0 | 0 | 0 | 0 | 0 | 0 | 0 | 0 | 0 | 0 | 0 | 0 | 0 | 0 | 0 | Sugarbeets plant response rating [3, 6]: 0
4 | Cc1cccc(C)c1-n1c(=O)on(C(=O)N(c2ccc(Cl)cc2Cl)C2CCC2)c1=O [Compound 318] | 0 | 0 | 0 | 0 | 0 | 0 | 0 | 0 | 0 | 0 | 0 | 0 | 0 | – | 0 | 0 | – | 0 | 0 | 0 | Rape plant response rating [1, 14]: 0; Redroot pigweed plant response rating [2, 14]: 0; Sugarbeets plant response rating [3, 14]: 0
5 | CC(C)N(C(=O)n1oc(=O)n(CCCN(C)C)c1=O)c1ccc(F)cc1 [Compound 323] | 0 | 0 | 0 | 0 | 0 | 0 | 0 | 0 | 0 | 0 | 0 | 0 | 0 | 0 | 0 | 0 | 0 | 0 | 0 | 0 | Plant response rating, Rape [1, 10]: 0; Plant response rating, Redroot pigweed [2, 10]: 0; Sugarbeets plant response rating [3, 6]: 0; Plant response rating, Sugarbeets [3, 10]: 0
6 | CC(C)N(C(=O)n1oc(=O)n(C2CC3CCC2C3)c1=O)c1ccc(F)cc1F (stereo not drawn) [Compound 326] | 0 | 0 | – | 1 | 1 | 6 | – | 4 | 0 | 0 | – | 0 | 0 | 1 | 0 | 3 | 7 | 3 | 0 | 0 | Plant response rating, Rape [1, 15]: 0; Plant response rating, Rape [1, 10]: 3; Plant response rating, Redroot pigweed [2, 15]: 4; Plant response rating, Redroot pigweed [2, 10]: 7; Plant response rating, Sugarbeets [3, 15]: 0; Sugarbeets plant response rating [3, 6]: 2; Plant response rating, Sugarbeets [3, 10]: 0
7 | CC(C)N(C(=O)n1oc(=O)n(-c2ccc3ccccc3c2)c1=O)c1ccc(F)cc1F [Compound 335] | 0 | 0 | – | – | 0 | 0 | – | – | 0 | 0 | – | – | 0 | 0 | 0 | 0 | 0 | 0 | 0 | 0 | Plant response rating, Rape [1, 15]: 0; Plant response rating, Rape [1, 10]: 0; Plant response rating, Redroot pigweed [2, 15]: 0; Plant response rating, Redroot pigweed [2, 10]: 0; Plant response rating, Sugarbeets [3, 15]: 0; Sugarbeets plant response rating [3, 6]: 0; Plant response rating, Sugarbeets [3, 10]: 0
